Reference: ChEMBL document CHEMBL5370625, “Design of Next-Generation DGAT2 Inhibitor PF-07202954 with Longer Predicted Half-Life” (ACS Med Chem Lett, 2023)
Blank lines part the entries; values can stand above or below the molecule they belong to.

How the values were obtained:
physchem [1] = assay: physchem
Description: Dissociation constant, pKa of the compound

[2] = target: T1, Diacylglycerol O-acyltransferase 2 (Homo sapiens, UniProt Q96PD7)
T1 sequence (Q96PD7 whole entry): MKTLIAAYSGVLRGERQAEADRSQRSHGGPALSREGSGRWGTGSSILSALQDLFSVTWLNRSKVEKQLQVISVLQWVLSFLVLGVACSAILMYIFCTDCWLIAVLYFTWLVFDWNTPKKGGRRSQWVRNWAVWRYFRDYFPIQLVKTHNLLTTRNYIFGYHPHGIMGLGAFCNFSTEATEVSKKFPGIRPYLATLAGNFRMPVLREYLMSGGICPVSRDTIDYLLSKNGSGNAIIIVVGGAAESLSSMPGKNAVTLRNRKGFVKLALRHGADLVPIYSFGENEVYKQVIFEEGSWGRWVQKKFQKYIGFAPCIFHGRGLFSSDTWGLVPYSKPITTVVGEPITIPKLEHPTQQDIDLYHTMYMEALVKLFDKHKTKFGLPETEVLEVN
Description: Inhibition of human DGAT2 using 14C decanoyl-CoA as a substrate pre incubated for 2 hrs followed by substrate addition measured after 40 mins by Trilux Microbeta reader analysis

[3] = human, hepatocytes
Description: Apparent intrinsic clearance in human hepatocytes measured per million cells by LC-MS/MS analysis

[4] = Clearance in Wistar Han rat plasma at 1 mg/kg,iv; format: ADME, organism-based
physchem [5] = settings: octanol/aqueous buffer, pH 7.4
[6] = Renal clearance in Wistar Han rat at 1 mg/kg, iv; format: ADME, organism-based; settings: in vivo
[7] = Oral bioavailability in Wistar Han rat; format: ADME, organism-based; settings: in vivo
[8] = Half life of the compound in Wistar Han rat at 1 mg/kg, iv; format: ADME, organism-based; settings: in vivo
in vitro = settings: dog, MDCK
Description: Apparent permeability in MDCKII-LE cells incubated for 1.5 hrs

[9] = Volume of distribution at steady state in Wistar Han rat at 1 mg/kg, iv; format: ADME, organism-based; settings: in vivo, read-out: Vdss
[10] = Renal clearance in cynomolgus monkey plasma at 1 mg/kg, iv; format: ADME, organism-based, Macaca fascicularis
[11] = Half life of the compound in po dosed Wistar Han rat; format: ADME, organism-based; settings: in vivo
[12] = Volume of distribution at steady state in cynomolgus monkey at 1 mg/kg, iv; format: ADME, organism-based, Macaca fascicularis; settings: in vivo, read-out: Vdss
[13] = Apparent intrinsic clearance in human hepatocytes measured per million cells at 1 uM incubated for 4 hrs by relay method; format: ADME, cell-based, Hepatocyte
[14] = Oral bioavailability in cynomolgus monkey; format: ADME, organism-based, Macaca fascicularis; settings: in vivo
[15] = Half life of the compound in po dosed cynomolgus monkey; format: ADME, organism-based, Macaca fascicularis; settings: in vivo
Rattus norvegicus [16] = assay: Hepatoprotective activity in po dosed western diet induced Sprague-Dawley rat model assessed as reduction in liver triglycerides level administered 7 days starting from day 14 post diet followed by single dose administration on day 8 and measured 2 hrs post last dose; format: functional, organism-based; settings: dose 3-100 mg/kg, time 8.0 day
Rattus norvegicus [17] = assay: Hepatoprotective activity in western diet induced Sprague-Dawley rat model assessed as reduction in liver triglycerides level at 100 mg/kg, po administered 7 days starting from day 14 post diet followed by single dose administration on day 8 and measured 2 hrs post last dose relative to control; format: functional; design: scale not given: the % may be the effect or the level left; settings: time 8 day
Rattus norvegicus [18] = assay: Hepatoprotective activity in po dosed western diet induced Sprague-Dawley rat model assessed as reduction in plasma triglycerides level administered 7 days starting from day 14 post diet followed by single dose administration on day 8 and measured 2 hrs post last dose; format: functional, organism-based; settings: dose 3-100 mg/kg, time 8.0 day
[19] = Renal clearance in po dosed cynomolgus monkey; format: ADME, organism-based, Macaca fascicularis; settings: in vivo
[20] = Renal clearance in po dosed Wistar Han rat; format: ADME, organism-based; settings: in vivo
[21] = Clearance in po dosed Wistar Han rat; format: ADME, organism-based; settings: in vivo
[22] = target: T2, Diacylglycerol O-acyltransferase 1 (Homo sapiens, UniProt O75907); assay: Inhibition of DGAT1 (unknown origin)
T2 sequence (O75907 whole entry): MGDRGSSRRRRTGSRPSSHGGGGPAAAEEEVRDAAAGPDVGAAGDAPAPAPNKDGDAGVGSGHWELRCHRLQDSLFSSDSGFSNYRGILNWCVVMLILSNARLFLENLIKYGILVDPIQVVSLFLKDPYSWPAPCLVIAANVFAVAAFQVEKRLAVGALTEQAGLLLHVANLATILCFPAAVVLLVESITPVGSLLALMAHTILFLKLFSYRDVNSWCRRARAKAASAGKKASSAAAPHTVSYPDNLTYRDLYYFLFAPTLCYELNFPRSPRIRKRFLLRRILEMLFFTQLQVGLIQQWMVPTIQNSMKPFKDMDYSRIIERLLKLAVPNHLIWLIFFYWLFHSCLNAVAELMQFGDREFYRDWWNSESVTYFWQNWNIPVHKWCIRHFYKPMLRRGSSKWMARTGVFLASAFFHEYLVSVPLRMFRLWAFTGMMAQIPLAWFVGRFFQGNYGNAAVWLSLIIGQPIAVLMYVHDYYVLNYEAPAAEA

[23] = Volume of distribution at steady state in po dosed cynomolgus monkey; format: ADME, organism-based, Macaca fascicularis; settings: in vivo
Rattus norvegicus [24] = assay: Hepatoprotective activity in po dosed high sucrose diet induced Sprague-Dawley rat model assessed as reduction in plasma triglycerides level measured after 2 to 4 hrs post last dose; format: functional, organism-based; settings: dose 10-100 mg/kg, time 2-4 hrs
[25] = target: T3, Diacylglycerol O-acyltransferase 2 (Rattus norvegicus, UniProt Q5FVP8); assay: Inhibition of rat DGAT2 using 14C decanoyl-CoA as a substrate pre incubated for 2 hrs followed by substrate addition measured after 40 mins by Trilux Microbeta reader analysis
T3 sequence (Q5FVP8 whole entry): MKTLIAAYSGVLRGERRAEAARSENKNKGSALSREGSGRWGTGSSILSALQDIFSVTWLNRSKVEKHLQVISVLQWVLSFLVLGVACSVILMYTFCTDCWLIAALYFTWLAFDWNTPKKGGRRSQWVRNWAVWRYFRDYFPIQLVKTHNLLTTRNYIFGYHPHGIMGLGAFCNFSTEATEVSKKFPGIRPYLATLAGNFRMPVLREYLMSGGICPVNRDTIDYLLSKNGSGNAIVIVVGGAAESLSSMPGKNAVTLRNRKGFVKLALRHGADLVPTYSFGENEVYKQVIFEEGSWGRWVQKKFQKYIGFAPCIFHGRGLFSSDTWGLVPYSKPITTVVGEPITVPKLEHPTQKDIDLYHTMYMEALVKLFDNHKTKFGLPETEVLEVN

Rattus norvegicus [26] = assay: Hepatoprotective activity in western diet induced Sprague-Dawley rat model assessed as reduction in plasma triglycerides level at 100 mg/kg, po administered 7 days starting from day 14 post diet followed by single dose administration on day 8 and measured 2 hrs post last dose relative to control; format: functional; design: scale not given: the % may be the effect or the level left; settings: time 8 day
[27] = Volume of distribution at steady state in Beagle dog plasma at 1 mg/kg, iv; format: ADME, organism-based, Canis lupus familiaris; settings: read-out: Vdss
[28] = Renal clearance in Beagle dog plasma at 1 mg/kg,iv; format: ADME, organism-based, Canis lupus familiaris
[29] = Clearance in po dosed cynomolgus monkey plasma; format: ADME, organism-based, Macaca fascicularis
[30] = Volume of distribution at steady state in po dosed Wistar Han rat; format: ADME, organism-based; settings: in vivo
[31] = Half life of the compound in Beagle dog plasma at 1 mg/kg, iv; format: ADME, organism-based, Canis lupus familiaris
[32] = Half life of the compound in cynomolgus monkey at 1 mg/kg, iv; format: ADME, organism-based, Macaca fascicularis; settings: in vivo
[33] = Clearance in Beagle dog plasma at 1 mg/kg,iv; format: ADME, organism-based, Canis lupus familiaris
Rattus norvegicus [34] = assay: Hepatoprotective activity in po dosed high sucrose diet induced Sprague-Dawley rat model assessed as reduction in liver triglycerides level measured after 2 to 4 hrs post last dose; format: functional, organism-based; settings: dose 10-100 mg/kg, time 2-4 hrs

pKa (physchem [1]): 9.2
IC50 [2]: 0.41 µM
CLH(app) [3]: < 3 µL/min
clearance [4]: 3.06 L/h/kg
logD at 1 h (physchem [5]): -0.15
CL renal [6]: 0.312 L/h/kg
bioavailability [7]: < 1%
half-life [8]: 1.9 h
Papp at 1.5 h (in vitro): 6.8 nm/s
Vd [9]: 4.1 L/kg
SMILES: CCOc1cccnc1Oc1cncc(-c2ncc(C(=O)N[C@@H]3CCNC3)cn2)c1

CLH(app) [3]: 9.3 µL/min
logD at 1 h (physchem [5]): 2.3
Papp at 1.5 h (in vitro): 140 nm/s
SMILES: CCOc1cccnc1Oc1cncc(-c2ncc(C(=O)N[C@@H]3CNCC(F)(F)C3)cn2)c1

CL renal [10]: < 0.006 L/h/kg
half-life [11]: 1.4 h
Vd [12]: 0.71 L/kg
CLH(app) [13]: 3.9 µL/min
logD at 1 h (physchem [5]): 1.9
CL renal [6]: < 0.006 L/h/kg
bioavailability [7]: 31%
Papp at 1.5 h (in vitro): 190 nm/s
bioavailability [14]: 48%
half-life [15]: 3.9 h
SMILES: CCOc1cccnc1Oc1cncc(-c2ncc(C(=O)N[C@H]3CCOC3)cn2)c1 [PF-06865571]

pKa (physchem [1]): 6.4
CLH(app) [3]: 4.7 µL/min
logD at 1 h (physchem [5]): 1.8
Papp at 1.5 h (in vitro): 180 nm/s
SMILES: CCOc1cccnc1Oc1cncc(-c2ncc(C(=O)N[C@@H]3CNCCC3(F)F)cn2)c1

pKa (physchem [1]): 4.5
IC50 [2]: 0.0044 µM
CLH(app) [3]: 38 µL/min
logD at 1 h (physchem [5]): 2.8
Papp at 1.5 h (in vitro): 300 nm/s
SMILES: CCOc1cccnc1Oc1cncc(-c2ncc(C(=O)N[C@H]3CC[C@@H](C(F)(F)F)NC3)cn2)c1 (relative stereo)

CLH(app) [3]: < 1.9 µL/min
logD at 1 h (physchem [5]): 1.3
Papp at 1.5 h (in vitro): 25 nm/s
SMILES: CCOc1cccnc1Oc1cncc(-c2ncc(C(=O)N[C@H]3CNC[C@H](F)C3)cn2)c1

pKa (physchem [1]): 10.1
IC50 [2]: 22 µM
logD at 1 h (physchem [5]): -0.19
Papp at 1.5 h (in vitro): 13 nm/s
SMILES: CCOc1cccnc1Oc1cncc(-c2ncc(C(=O)NC3CCNCC3)cn2)c1

pKa (physchem [1]): 8
IC50 [2]: 0.016 µM
CLH(app) [3]: < 1.9 µL/min
logD at 1 h (physchem [5]): 0.96
Papp at 1.5 h (in vitro): 47 nm/s
SMILES: CCOc1cccnc1Oc1cncc(-c2ncc(C(=O)N[C@@H]3CNCC[C@@H]3F)cn2)c1

pKa (physchem [1]): 9.2
IC50 [2]: 0.5 µM
CLH(app) [3]: < 1.8 µL/min
logD at 1 h (physchem [5]): -0.9
Papp at 1.5 h (in vitro): 3.9 nm/s
SMILES: CCOc1cccnc1Oc1cncc(-c2ncc(C(=O)N[C@H]3CCNC3)cn2)c1

pKa (physchem [1]): 6.8
IC50 [2]: 0.2 µM
CLH(app) [3]: 6.6 µL/min
logD at 1 h (physchem [5]): 1.7
Papp at 1.5 h (in vitro): 130 nm/s
SMILES: CCOc1cccnc1Oc1cncc(-c2ncc(C(=O)N[C@@H]3CNC[C@H](F)C3)cn2)c1 (racemic)

CL renal [19]: 0.0174 L/h/kg
CL renal [20]: 0.45 L/h/kg
CL/F [21]: 3.84 L/h/kg
IC50 [22]: > 50 µM
Vdss [23]: 1.6 L/kg
IC50 [25]: 0.017 µM
Vd [27]: 2.1 L/kg
CL renal [28]: 0.33 L/h/kg
CL/F [29]: 1.02 L/h/kg
Vdss [30]: 2.7 L/kg
half-life [31]: 1.5 h
CLH(app) [13]: 0.99 µL/min
half-life [32]: 1.4 h
logD at 1 h (physchem [5]): 1.4
bioavailability [7]: 12%
clearance [33]: 1.32 L/h/kg
half-life [8]: 0.9 h
Papp at 1.5 h (in vitro): 29 nm/s
bioavailability [14]: 21%
half-life [15]: 6.5 h
SMILES: CCOc1cccnc1Oc1cncc(-c2ncc(C(=O)N[C@@H]3CNC[C@@H](F)C3)cn2)c1
Activity (Rattus norvegicus [16]): Dose-Dependent Effect
Activity (Rattus norvegicus [17]): 48%
Activity (Rattus norvegicus [18]): Dose-Dependent Effect
Activity (Rattus norvegicus [24]): Dose-Dependent Effect
Activity (Rattus norvegicus [26]): 71%
Activity (Rattus norvegicus [34]): Dose-Dependent Effect

CLH(app) [3]: < 1.9 µL/min
logD at 1 h (physchem [5]): 1.4
Papp at 1.5 h (in vitro): 88 nm/s
SMILES: CCOc1cccnc1Oc1cncc(-c2ncc(C(=O)N[C@@H]3CNCC[C@H]3F)cn2)c1
